# US20080214480A1, “Method for Treating Sickle Cell Disease and Sickle Cell Disease Sequalae” (TRF Pharma, Inc., priority 2005, published 2008)
# How the values were obtained:
# [1] = tested on: Human SCD patients; test: Computer-assisted intravital microscopy (CAIM) of conjunctival microcirculation, Example 1; type: in vivo; conditions: SCD patients hospitalized for VOC, high dose, relative to placebo group
# Text: Human SCD patients are enrolled to be studied by a non-invasive videotape of the conjunctival microcirculation. Recently, microvascular characteristics in SCD patients have been quantified using computer-assisted intravital microscopy (CAIM), a novel technology involving intravital video-microscopy coupled with imaging protocols, to study and analyze steady-state and vaso-occlusive crisis (VOC) microvascular characteristics in SCD (Cheung et al, Blood. 2002; 99:3999). During VOC, decreases in vascularity (“blanching”) occur as a result of vasoconstriction and diminished blood flow through the microvessels. […] The microvascular changes during VOC are transient and revert to steady-state values after crisis resolution. These specific reversals in VOC are used as the basis for this study to evaluate and quantify the effects of PPS on the microcirculation.
# Because of the unique shape and form of conjunctival vessels, each vessel is easily identified and located to be re-studied. Each vessel serves as its own reference (control) to evaluate and quantify microvascular changes. […] CAIM is used to non-invasively videotape and longitudinally quantify the changes in venular diameter and red-cell velocity pre- and post-treatment of PPS, sulodexide or placebo at various time points post treatment.
# [2] = tested on: adhesion of RBC from sickle cell patients (ssRBC) to human umbilical vein endothelial cells (HUVEC); test: Variable height flow chamber adhesion of ssRBC to endothelial cells, Example 4; type: cell-based; conditions: HUVEC stimulated with thrombin or TNF-alpha, treated thirty minutes at 37° C., versus control preparations
# Description: The effects of PPS or sulodexide on sickle cell erythrocyte adhesion are evaluated by in vitro study according to procedures similar to those described in Telen et al. (Blood, 2004, 104:3774); Niihara et al (BMC Blood Disorders, 2005, 5:4); and Barabino et al (Blood, 1999, 93:1422-29). In brief, a variable height flow chamber is used to quantitate the effects of PPS on the adhesion of RBC from sickle cell patients (ssRBC) to endothelial cells. Human umbilical vein endothelial cells (HUVEC) are grown on gelatin coated glass slides until confluent. The HUVEC's are then stimulated with thrombin or TNF-alpha and washed with PBS with Ca^+2 and Mg^+2. Following activation, the endothelial cells are treated with various concentrations of PPS for thirty minutes at 37° C. The endothelial cells are then washed in PBS with Ca^+2 and Mg^+2, mounted onto the variable height flow chamber where the final testing unit is assembled. […] Adhesion is quantitated by counting the adherent ssRBCs in a field in 7 different locations along the slide in the direction of the flow. The height of the chamber at each of these 7 locations is measured so that the shear stress can be calculated; note that the typical range seen is between 0.3 to 2.7 dynes/cm^2. […]
# [3] = tested on: transplanted livers; conditions: livers pretreated with PPS; cited from earlier work
# [4] = tested on: LNCaP; conditions: dependent on anchorage; cited from earlier work
# [5] = tested on: DU145; conditions: DU145, dependent on anchorage; cited from earlier work
# [6] = tested on: PC-3; conditions: PC-3, not dependent on anchorage; cited from earlier work
# [7] = tested on: tumor cell adhesion; conditions: direct measurements, Schamhart; cited from earlier work
# [8] = Wardle 1992; cited from earlier work
# [9] = tested on: HUVEC cells; conditions: Barabino et al, Blood 1999; cited from earlier work
# [10] = target: T1, immobilized P-selectin (Homo sapiens, UniProt P16109); conditions: Matsui, Blood 2002; cited from earlier work
# T1 sequence (P16109 42-830): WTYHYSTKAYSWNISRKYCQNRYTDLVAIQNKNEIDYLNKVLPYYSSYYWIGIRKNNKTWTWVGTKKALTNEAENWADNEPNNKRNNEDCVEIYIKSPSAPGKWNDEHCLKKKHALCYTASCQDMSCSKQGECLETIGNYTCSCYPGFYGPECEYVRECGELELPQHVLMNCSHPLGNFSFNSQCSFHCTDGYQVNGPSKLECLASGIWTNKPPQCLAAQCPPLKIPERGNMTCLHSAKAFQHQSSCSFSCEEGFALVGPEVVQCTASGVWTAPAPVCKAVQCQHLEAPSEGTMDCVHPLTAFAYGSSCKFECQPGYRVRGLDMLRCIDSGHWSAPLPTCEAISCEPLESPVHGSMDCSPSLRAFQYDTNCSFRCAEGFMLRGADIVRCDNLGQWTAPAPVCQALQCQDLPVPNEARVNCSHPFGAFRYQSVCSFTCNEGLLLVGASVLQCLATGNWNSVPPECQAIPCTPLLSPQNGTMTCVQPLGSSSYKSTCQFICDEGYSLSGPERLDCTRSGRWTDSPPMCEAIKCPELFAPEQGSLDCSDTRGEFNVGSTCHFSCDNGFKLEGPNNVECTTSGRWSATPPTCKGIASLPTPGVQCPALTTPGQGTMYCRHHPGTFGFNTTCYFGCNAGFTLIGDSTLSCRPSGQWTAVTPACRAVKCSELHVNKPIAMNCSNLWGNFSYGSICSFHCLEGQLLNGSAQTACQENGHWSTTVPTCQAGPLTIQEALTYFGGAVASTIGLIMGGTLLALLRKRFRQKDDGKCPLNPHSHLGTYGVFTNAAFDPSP
# [11] = tested on: human endothelial cells; conditions: Gupta et al; cited from earlier work
# [12] = tested on: patients with sickle cell crises; conditions: four patients, 12-month self-administered intravenous minidose heparin vs 12 months off heparin; cited from earlier work
substance,measurement,setting,value
Pentosan polysulfate [PPS],microvascular flow (venular diameter and red-cell velocity by CAIM),[1],significant improvement in microvascular flow
same,percentage of adherent cells,[2],reduction
same,leukocytes adhering to the vascular wall,[3],significantly fewer
same,reperfusion edema,[3],no reperfusion edema
same,growth and migration of tumor cell line,[4],inhibited
same,growth and migration of tumor cell line,[5],inhibited
same,growth and migration of tumor cell line,[6],no effect
same,tumor cell adhesion,[7],inhibited
same,anticoagulant potency relative to heparin,[8],about one-fifteenth
chondroitin sulfate,sickle cell adhesion to HUVEC cells,[9],inhibited
dextran sulfate,sickle cell adhesion to HUVEC cells,[9],inhibited
heparin,in vitro flow adhesion of sickle cells to immobilized P-selectin,[10],inhibited
same,sickle cell adhesion to HUVEC cells,[9],inhibited
same,sickle erythrocyte adhesion to human endothelial cells in vitro,[11],inhibited
same,pain reduction,[12],improvement in pain reduction
heparin sulfate,sickle cell adhesion to HUVEC cells,[9],did not
low molecular weight heparin,in vitro flow adhesion of sickle cells to immobilized P-selectin,[10],not low molecular weight heparin proved to be effective
